For one data set, the system named is Hepatitis B virus. As to the kind of experiment: Hepatitis B Virus Activity (method of Jansen et al. 1993). The format is cell-based. The following applies: n=2, read-out: IC50 against Hepatitis B virus. The method, then: (§1) The activity of compounds against Hepatitis B Virus was assessed as described in Jansen, R. et al., Antimicrobial Agents and Chemotherapy, Vol. 37, No. 3, pp. 441-447, 1993.

A short description of data set [1]: Cytotoxicity (reported with the Hepatitis B virus activity test). In kind it is cell-based. As for the experimental part:
as §1

The structures appear in SMILES notation.

For the compound `Nc1ncnc2c1ncn2[C@@H]1C=C[C@H](CO)C1` [(+)-(1R,4S)-4-(6-Amino-9H-purin-9-yl)-2-cyclopentene-1-methanol], the melting point (as a rule, the temperature, or range, at which the solid turns liquid) is 195 to 200 °C. In addition, the IC50 (commonly the concentration needed to halve the response being measured) in the data set on Hepatitis B virus was found to be 1 µM. In data set [1], this compound showed a Cytotoxicity of over 200 µM.
